Results published in paper PMC4620497 (Scientific Reports, 2015).
Where two headings read alike, the source gives them in different places.

How the values were obtained:
A549 = assay: MTT cell viability assay; conditions: Homo sapiens, A549, 72 h
HeLa = assay: MTT cell viability assay; conditions: Homo sapiens, 72 h
Jurkat = assay: MTT cell viability assay; conditions: Homo sapiens, 72 h
HL-60 = assay: MTT cell viability assay; conditions: Homo sapiens, HL-60, 72 h
Raji = assay: MTT cell viability assay; conditions: Homo sapiens, 72 h
MCF-7 = assay: MTT cell viability assay; conditions: Homo sapiens, MCF7, 72 h
SMMC7721 = assay: MTT cell viability assay; conditions: Homo sapiens, SMMC-7721, 72 h
U266 = assay: MTT cell viability assay; conditions: Homo sapiens, U-266, 72 h
[1] = system: Wnt/β-catenin signaling in STF3a cells; assay: STF3a SuperTopFlash luciferase reporter assay; format: cell-based; conditions: 24 h
Method: The cell line STF3a, which stably expresses both the STF (SuperTopFlash) luciferase reporter promoter and the wnt3a gene was used to determine whether SKLB-677 can block the Wnt/β-catenin signaling. […]. […] Here we can conclude that the SKLB-677-mediated blockade of Wnt/β-catenin signaling is not due to FLT3 inhibition. We then examined whether the first-generation FLT3 inhibitors could inhibit Wnt/β-catenin signaling. […].
STF3a cells (8 × 10^3) were seeded overnight in 96-well plates (triplicate wells per treatment). Cells were treated with 0.1% DMSO or tested compounds for 24 h with Luciferase assay system (Promega) performed according to the manufacturer’s instructions. […] The reporter activity was expressed as relative values compared with vehicle control.
Figure 3 Effects of SKLB-677 on Wnt/β-catenin signaling. […]. All data points are means of triplicates ± SD. ns, not statistically significant, **P < 0.01, ***P < 0.005 among groups. […]. (c) STF3a cells were incubated with various concentrations of SKLB-677 for 24 h.The cell lysates were detected using the antibodies against S33/37/T41 Non-phospho β-catenin (active β-catenin), and total β-catenin (β-catenin). (d) STF3a cells were treated with indicated concentrations of SKLB-677 for 24 h. MYC, CCND1, and NKD1 mRNA expressions were determined through real-time qPCR analysis. All samples were normalized to the level of GAPDH (mean ± SEM from triplicate reactions). *P < 0.05, **P < 0.01, ***P < 0.005. (e) Representative images of zebrafish embryos at 24hpf with tail formation after incubation with various concentrations of SKLB-677 for 20 h. (f) Zebrafish embryos were injected with wnt8.1 mRNA (30 pg) or vehicle mRNA (phaenotype control). […]. Results shown in the histogram are expressed as the percentage of embryos in each phenotypic class after the treatment (n > 70). Class 1: wild-type, class 2: posteriorized, resulting in the loss of the eyes, and class 3: more severely posteriorized, as evidenced by head truncation.

Karpas-299 = assay: MTT cell viability assay; conditions: Homo sapiens, KARPAS-299, 72 h
BEL7402 = assay: MTT cell viability assay; conditions: Homo sapiens, Bel-7402, 72 h
MV4-11 = assay: MTT cell viability assay; conditions: Homo sapiens, MV4-11, 72 h
CAMK2B = biological target: T1, CAMK2B (Homo sapiens, UniProt Q13554); assay: KINOMEscan panel screen; format: binding; conditions: read-out: Percent Control(%)
T1 construct: purchased DiscoveRx KINOMEscan (Ambit Biosciences)

LRRK2(G2019S) = biological target: T2, LRRK2(G2019S) (Homo sapiens, UniProt Q5S007, G2019S); assay: KINOMEscan panel screen; format: binding; conditions: read-out: Percent Control(%)
T2 construct: purchased DiscoveRx KINOMEscan (Ambit Biosciences)

CAMK1G = biological target: T3, CAMK1G (Homo sapiens, UniProt Q96NX5); assay: KINOMEscan panel screen; format: binding; conditions: read-out: Percent Control(%)
T3 construct: purchased DiscoveRx KINOMEscan (Ambit Biosciences)

MAP3K1 = biological target: T4, MAP3K1 (Homo sapiens, UniProt Q13233); assay: KINOMEscan panel screen; format: binding; conditions: read-out: Percent Control(%)
T4 construct: purchased DiscoveRx KINOMEscan (Ambit Biosciences)

PIK3C2G = biological target: T5, PIK3C2G (Homo sapiens, UniProt O75747); assay: KINOMEscan panel screen; format: binding; conditions: read-out: Percent Control(%)
T5 construct: purchased DiscoveRx KINOMEscan (Ambit Biosciences)

PANC-1 = assay: MTT cell viability assay; conditions: Homo sapiens, PANC-1, 72 h
MEK2 = biological target: T6, MEK2 (Homo sapiens, UniProt P36507); assay: KINOMEscan panel screen; format: binding; conditions: read-out: Percent Control(%)
T6 construct: purchased DiscoveRx KINOMEscan (Ambit Biosciences)

TRPM6 = biological target: T7, TRPM6 (Homo sapiens, UniProt Q9BX84); assay: KINOMEscan panel screen; format: binding; conditions: read-out: Percent Control(%)
T7 construct: purchased DiscoveRx KINOMEscan (Ambit Biosciences)

AKT3 = biological target: T8, AKT3 (Homo sapiens, UniProt Q9Y243); assay: KINOMEscan panel screen; format: binding; conditions: read-out: Percent Control(%)
T8 construct: purchased DiscoveRx KINOMEscan (Ambit Biosciences)

LTK = biological target: T9, LTK (Homo sapiens, UniProt P29376); assay: KINOMEscan panel screen; format: binding; conditions: read-out: Percent Control(%)
T9 construct: purchased DiscoveRx KINOMEscan (Ambit Biosciences)

PIK3C2B = biological target: T10, PIK3C2B (Homo sapiens, UniProt O00750); assay: KINOMEscan panel screen; format: binding; conditions: read-out: Percent Control(%)
T10 construct: purchased DiscoveRx KINOMEscan (Ambit Biosciences)

BRK = biological target: T11, BRK (Homo sapiens, UniProt Q13882); assay: KINOMEscan panel screen; format: binding; conditions: read-out: Percent Control(%)
T11 construct: purchased DiscoveRx KINOMEscan (Ambit Biosciences)

PRKG1 = biological target: T12, PRKG1 (Homo sapiens, UniProt Q13976); assay: KINOMEscan panel screen; format: binding; conditions: read-out: Percent Control(%)
T12 construct: purchased DiscoveRx KINOMEscan (Ambit Biosciences)

PIK3CB = biological target: T13, PIK3CB (Homo sapiens, UniProt P42338); assay: KINOMEscan panel screen; format: binding; conditions: read-out: Percent Control(%)
T13 construct: purchased DiscoveRx KINOMEscan (Ambit Biosciences)

ASK2 = biological target: T14, ASK2 (Homo sapiens, UniProt O95382); assay: KINOMEscan panel screen; format: binding; conditions: read-out: Percent Control(%)
T14 construct: purchased DiscoveRx KINOMEscan (Ambit Biosciences)

LZK = biological target: T15, LZK (Homo sapiens, UniProt O43283); assay: KINOMEscan panel screen; format: binding; conditions: read-out: Percent Control(%)
T15 construct: purchased DiscoveRx KINOMEscan (Ambit Biosciences)

GAK = biological target: T16, GAK (Homo sapiens, UniProt O14976); assay: KINOMEscan panel screen; format: binding; conditions: read-out: Percent Control(%)
T16 construct: purchased DiscoveRx KINOMEscan (Ambit Biosciences)

TIE2 = biological target: T17, TIE2 (Homo sapiens, UniProt Q02763); assay: KINOMEscan panel screen; format: binding; conditions: read-out: Percent Control(%)
T17 construct: purchased DiscoveRx KINOMEscan (Ambit Biosciences)
T17 sequence (Q02763 23-1124): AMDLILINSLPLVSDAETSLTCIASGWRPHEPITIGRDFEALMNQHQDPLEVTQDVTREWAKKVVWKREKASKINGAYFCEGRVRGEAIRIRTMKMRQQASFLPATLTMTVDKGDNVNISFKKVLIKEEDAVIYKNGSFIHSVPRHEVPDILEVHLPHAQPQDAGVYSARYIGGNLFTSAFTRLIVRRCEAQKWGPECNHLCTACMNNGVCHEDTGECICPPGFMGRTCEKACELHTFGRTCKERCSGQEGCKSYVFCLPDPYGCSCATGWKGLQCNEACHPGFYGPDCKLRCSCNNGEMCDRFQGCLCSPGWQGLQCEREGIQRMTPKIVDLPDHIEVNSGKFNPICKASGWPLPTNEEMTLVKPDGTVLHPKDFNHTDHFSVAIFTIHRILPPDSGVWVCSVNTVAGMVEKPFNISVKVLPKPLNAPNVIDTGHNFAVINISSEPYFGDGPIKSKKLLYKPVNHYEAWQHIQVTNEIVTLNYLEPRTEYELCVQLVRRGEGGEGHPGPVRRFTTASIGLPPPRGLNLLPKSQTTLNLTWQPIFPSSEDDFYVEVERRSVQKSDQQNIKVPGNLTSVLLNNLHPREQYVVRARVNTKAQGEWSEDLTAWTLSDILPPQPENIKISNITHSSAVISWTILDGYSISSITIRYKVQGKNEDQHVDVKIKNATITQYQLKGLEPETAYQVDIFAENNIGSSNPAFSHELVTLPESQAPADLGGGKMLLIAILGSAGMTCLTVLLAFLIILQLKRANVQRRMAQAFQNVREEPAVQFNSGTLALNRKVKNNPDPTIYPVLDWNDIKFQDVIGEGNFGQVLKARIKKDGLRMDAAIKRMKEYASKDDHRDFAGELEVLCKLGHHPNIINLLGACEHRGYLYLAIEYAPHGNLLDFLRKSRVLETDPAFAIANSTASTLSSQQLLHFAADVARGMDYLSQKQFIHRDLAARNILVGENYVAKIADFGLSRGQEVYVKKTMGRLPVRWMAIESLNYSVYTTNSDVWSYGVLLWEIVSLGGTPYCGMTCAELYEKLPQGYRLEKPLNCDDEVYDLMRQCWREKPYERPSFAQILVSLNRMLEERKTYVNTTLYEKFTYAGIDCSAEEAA

T9 sequence (P29376 17-864): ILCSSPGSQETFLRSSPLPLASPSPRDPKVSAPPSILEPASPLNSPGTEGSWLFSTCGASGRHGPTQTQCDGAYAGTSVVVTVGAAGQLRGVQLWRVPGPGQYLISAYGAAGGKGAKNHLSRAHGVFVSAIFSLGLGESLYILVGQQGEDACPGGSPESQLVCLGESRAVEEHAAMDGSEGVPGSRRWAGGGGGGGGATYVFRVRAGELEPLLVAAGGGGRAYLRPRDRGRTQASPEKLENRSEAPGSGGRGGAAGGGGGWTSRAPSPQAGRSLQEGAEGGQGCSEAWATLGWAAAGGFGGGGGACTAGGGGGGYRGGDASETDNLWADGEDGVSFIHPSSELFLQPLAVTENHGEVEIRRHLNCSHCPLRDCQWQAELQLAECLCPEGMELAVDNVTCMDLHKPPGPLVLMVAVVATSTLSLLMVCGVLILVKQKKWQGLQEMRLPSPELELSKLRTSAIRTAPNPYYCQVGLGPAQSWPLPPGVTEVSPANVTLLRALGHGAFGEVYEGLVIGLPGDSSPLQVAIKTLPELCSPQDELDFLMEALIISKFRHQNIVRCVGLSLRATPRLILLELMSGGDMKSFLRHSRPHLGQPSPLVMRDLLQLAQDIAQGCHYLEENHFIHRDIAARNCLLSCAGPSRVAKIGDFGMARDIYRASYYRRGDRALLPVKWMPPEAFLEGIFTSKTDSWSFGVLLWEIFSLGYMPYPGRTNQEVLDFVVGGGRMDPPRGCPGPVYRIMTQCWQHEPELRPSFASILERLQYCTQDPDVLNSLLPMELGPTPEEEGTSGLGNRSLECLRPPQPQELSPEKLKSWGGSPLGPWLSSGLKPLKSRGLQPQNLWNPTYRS
T7 sequence (Q9BX84 whole entry): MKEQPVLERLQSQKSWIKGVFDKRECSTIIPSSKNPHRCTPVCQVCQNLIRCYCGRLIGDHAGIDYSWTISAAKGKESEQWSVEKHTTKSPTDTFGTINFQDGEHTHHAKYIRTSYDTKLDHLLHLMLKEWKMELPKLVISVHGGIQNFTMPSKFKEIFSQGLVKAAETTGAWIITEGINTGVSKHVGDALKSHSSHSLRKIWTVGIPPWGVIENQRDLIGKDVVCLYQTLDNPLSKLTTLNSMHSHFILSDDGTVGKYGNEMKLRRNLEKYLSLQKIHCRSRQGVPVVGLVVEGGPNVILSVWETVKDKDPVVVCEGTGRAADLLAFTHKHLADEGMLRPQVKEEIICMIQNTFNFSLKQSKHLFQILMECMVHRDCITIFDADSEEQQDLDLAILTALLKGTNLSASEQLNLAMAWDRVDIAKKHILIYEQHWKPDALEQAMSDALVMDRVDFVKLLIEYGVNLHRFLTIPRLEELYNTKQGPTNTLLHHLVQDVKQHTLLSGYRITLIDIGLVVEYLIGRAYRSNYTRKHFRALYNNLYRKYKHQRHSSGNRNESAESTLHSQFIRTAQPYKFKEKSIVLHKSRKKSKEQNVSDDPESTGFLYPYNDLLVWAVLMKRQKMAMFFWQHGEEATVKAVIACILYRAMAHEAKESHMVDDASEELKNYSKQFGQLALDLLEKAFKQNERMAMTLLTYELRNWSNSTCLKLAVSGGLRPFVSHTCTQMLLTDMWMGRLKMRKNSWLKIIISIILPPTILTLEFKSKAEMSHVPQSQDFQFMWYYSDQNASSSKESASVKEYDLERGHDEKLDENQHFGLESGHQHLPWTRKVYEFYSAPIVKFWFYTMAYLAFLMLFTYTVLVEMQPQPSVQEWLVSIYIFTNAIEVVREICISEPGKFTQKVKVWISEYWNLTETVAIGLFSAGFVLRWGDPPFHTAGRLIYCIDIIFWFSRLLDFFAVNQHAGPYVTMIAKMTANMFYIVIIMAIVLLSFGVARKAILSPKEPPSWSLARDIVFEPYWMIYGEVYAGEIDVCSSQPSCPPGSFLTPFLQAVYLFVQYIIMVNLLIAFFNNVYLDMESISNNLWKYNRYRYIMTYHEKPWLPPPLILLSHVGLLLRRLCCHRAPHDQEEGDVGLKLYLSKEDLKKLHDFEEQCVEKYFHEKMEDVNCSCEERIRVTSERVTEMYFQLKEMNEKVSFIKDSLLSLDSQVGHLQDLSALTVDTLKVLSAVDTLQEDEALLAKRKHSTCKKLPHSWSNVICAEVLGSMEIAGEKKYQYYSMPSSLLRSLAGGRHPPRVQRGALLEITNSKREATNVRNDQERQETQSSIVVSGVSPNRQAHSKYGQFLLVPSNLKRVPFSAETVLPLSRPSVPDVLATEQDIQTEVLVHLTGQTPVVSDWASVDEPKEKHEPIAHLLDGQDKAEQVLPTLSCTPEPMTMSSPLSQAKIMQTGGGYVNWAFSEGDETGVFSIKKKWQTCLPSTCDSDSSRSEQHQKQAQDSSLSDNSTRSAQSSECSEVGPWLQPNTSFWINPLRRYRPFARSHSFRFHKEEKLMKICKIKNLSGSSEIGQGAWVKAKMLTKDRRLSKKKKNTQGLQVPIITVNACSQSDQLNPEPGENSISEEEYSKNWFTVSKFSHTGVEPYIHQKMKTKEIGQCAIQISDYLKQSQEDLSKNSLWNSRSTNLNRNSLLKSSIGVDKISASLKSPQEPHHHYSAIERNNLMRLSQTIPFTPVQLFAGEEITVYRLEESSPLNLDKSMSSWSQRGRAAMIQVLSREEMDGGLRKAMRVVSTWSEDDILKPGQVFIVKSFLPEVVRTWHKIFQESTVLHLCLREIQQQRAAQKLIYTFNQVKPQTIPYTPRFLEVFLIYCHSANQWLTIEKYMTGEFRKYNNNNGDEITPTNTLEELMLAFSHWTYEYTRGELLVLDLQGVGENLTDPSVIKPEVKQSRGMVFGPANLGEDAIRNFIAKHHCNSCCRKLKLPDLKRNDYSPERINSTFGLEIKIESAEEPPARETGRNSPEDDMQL
T13 sequence (P42338 whole entry): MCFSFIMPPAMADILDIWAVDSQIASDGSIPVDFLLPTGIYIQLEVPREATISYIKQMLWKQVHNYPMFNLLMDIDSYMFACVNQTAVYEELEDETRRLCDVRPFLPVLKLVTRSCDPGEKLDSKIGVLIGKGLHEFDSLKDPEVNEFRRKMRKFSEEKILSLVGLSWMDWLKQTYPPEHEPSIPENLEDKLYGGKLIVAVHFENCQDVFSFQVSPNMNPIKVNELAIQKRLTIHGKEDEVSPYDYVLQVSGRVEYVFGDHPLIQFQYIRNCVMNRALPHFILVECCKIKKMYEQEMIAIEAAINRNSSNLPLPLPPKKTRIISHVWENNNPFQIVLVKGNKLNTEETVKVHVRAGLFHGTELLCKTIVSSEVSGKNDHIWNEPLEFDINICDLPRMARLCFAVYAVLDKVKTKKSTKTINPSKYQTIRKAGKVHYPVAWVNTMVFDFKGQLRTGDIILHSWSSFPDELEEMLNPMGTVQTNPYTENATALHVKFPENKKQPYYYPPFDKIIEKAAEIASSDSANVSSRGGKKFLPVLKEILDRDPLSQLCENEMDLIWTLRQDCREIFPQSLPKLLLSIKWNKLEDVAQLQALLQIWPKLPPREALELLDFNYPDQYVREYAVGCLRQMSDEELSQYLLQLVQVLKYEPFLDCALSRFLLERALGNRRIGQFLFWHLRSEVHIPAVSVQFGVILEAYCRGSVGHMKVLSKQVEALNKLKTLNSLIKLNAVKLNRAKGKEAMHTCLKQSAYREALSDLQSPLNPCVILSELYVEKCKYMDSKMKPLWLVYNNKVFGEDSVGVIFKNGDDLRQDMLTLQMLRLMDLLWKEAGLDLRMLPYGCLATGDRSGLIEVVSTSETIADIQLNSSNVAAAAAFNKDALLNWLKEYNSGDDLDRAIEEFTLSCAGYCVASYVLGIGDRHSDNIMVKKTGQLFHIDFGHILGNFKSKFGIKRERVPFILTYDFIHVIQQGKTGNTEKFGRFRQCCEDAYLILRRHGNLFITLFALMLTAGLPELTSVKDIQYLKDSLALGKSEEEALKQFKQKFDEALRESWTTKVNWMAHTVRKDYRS

Structure (SMILES)	IC50 (A549) [µM]	IC50 (HeLa) [µM]	IC50 (Jurkat) [µM]	IC50 (HL-60) [µM]	IC50 (Raji) [µM]	IC50 (MCF-7) [µM]	IC50 (SMMC7721) [µM]	IC50 (U266) [µM]	IC50 (Karpas-299) [µM]	IC50 (BEL7402) [µM]	IC50 (MV4-11) [nM]	other results
O=C(Nc1ccc(Oc2ncnc3[nH]ncc23)cc1)Nc1ccc(Cl)c(C(F)(F)F)c1 [Compound 1, 1-(4-(1H-pyrazolo[3,4-d]pyrimidin-4-yloxy)phenyl)-3-(4-chloro-3-(trifluoromethyl)phenyl)urea]	> 10	> 10	8.72	> 10	> 10	> 10	> 10	> 10	> 10	> 10	4	attenuation of Wnt/β-catenin signaling ([1]; STF3a cells): very weak activity
CC(C)(C)c1cc(NC(=O)Nc2ccc(Oc3ncnc4[nH]ncc34)c(F)c2)no1 [SKLB-677, 1-(4-(1H-pyrazolo[3,4-d]pyrimidin-4-yloxy)-3-fluorophenyl)-3-(5-tert-butylisoxazol-3-yl)urea]	6.4	9.45	4.3	8.9	7.9	> 10	> 10	> 10	7	> 10	0.079	remaining binding at 10 µM (CAMK2B): 77%; remaining binding at 10 µM (LRRK2(G2019S)): 78%; remaining binding at 10 µM (CAMK1G): 48%; remaining binding at 10 µM (MAP3K1): 36%; remaining binding at 10 µM (PIK3C2G): 100%; IC50 (PANC-1): > 10 µM; remaining binding at 10 µM (MEK2): 5.9%; remaining binding at 10 µM (TRPM6): 89%; remaining binding at 10 µM (AKT3): 100%; remaining binding at 10 µM (LTK): 1.2%; remaining binding at 10 µM (PIK3C2B): 100%; remaining binding at 10 µM (BRK): 23%; remaining binding at 10 µM (PRKG1): 86%; remaining binding at 10 µM (PIK3CB): 100%; remaining binding at 10 µM (ASK2): 32%; IC50 ([1]; STF3A, read-out: IC50, inhibition of the Wnt/β-catenin signaling): < 0.1 µM; remaining binding at 10 µM (LZK): 93%; IC50 (MV4-11; read-out: Cell viability IC50): 0.079 nM; remaining binding at 10 µM (GAK): 100%; remaining binding at 10 µM (TIE2): 0.2%
